Target: T1, EP1 receptor (Mus musculus, UniProt P35375)
T1 sequence (P35375 1-405): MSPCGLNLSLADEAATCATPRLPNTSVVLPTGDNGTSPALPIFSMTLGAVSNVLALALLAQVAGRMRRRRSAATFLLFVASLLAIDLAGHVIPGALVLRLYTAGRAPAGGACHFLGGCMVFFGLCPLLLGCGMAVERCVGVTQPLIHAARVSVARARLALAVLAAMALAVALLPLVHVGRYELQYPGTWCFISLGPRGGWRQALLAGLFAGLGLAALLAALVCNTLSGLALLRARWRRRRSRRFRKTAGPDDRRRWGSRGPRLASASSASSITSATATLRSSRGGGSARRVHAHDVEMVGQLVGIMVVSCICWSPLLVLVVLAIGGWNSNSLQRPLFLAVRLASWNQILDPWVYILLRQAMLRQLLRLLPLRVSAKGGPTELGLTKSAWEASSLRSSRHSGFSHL
Assay: Fura-2 intracellular Ca2+ dose-response in EP1-HEK cells
Assay type: cell-based

- EC50: 12.8 nM
SMILES: CCCCC[C@H](O)/C=C/[C@H]1[C@H](O)CC(=O)[C@@H]1C/C=C\CCCC(=O)O [PGE2]
